# Test results from ChEMBL document CHEMBL4196089, “Design, synthesis, biological evaluation and in vivo testing of dual phosphodiesterase 5 (PDE5) and histone deacetylase 6 (HDAC6)-selective inhibitors for the treatment of Alzheimer's disease” (Eur J Med Chem, 2018).
# Tests used:
# CYP1A2 = CYP1A2 (Homo sapiens, UniProt P05177); test: Inhibition of CYP1A2 in human liver microsomes at 10 uM after 10 mins in presence of NADPH by LC-MS/MS analysis relative to control; assay type: ADME
# [1] = target: T1, Protein deacetylase HDAC6 (Homo sapiens, UniProt Q9UBN7); test: Inhibition of full length human recombinant N-terminal GST-tagged HDAC6 expressed in baculovirus infected sf9 cells using fluorogenic HDAC substrate 3 after 30 mins by fluorescence assay
# T1 sequence (Q9UBN7 whole entry): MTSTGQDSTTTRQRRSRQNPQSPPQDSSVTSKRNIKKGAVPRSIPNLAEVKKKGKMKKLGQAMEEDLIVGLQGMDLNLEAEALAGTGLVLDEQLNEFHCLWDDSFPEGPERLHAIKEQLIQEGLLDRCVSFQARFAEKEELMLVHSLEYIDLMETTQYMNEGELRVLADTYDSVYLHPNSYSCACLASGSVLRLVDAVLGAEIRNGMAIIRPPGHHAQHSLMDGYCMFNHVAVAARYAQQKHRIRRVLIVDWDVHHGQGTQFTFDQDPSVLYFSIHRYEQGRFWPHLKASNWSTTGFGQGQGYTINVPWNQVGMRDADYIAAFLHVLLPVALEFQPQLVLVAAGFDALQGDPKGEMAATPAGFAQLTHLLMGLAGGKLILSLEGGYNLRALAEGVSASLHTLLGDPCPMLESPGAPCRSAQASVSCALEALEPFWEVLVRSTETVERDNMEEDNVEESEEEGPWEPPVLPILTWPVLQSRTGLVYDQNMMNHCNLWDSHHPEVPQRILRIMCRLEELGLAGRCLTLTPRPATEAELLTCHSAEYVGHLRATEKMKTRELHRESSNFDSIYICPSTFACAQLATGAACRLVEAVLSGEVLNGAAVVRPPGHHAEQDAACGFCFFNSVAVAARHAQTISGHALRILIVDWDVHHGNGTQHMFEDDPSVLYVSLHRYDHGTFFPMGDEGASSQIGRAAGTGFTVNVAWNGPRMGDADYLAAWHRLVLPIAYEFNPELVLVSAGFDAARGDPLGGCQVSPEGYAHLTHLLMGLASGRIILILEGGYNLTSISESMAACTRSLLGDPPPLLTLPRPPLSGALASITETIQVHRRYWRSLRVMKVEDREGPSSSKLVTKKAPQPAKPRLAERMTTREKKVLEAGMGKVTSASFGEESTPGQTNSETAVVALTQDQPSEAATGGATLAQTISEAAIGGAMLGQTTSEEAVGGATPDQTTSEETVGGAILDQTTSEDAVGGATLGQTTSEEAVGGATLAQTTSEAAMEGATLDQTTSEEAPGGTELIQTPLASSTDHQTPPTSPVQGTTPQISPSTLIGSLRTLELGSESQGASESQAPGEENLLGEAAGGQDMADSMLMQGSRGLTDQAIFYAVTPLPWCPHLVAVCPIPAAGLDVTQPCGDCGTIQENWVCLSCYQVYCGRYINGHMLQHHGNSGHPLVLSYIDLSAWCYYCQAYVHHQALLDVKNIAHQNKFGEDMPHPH
# CYP1A2, sequence (P05177 whole entry): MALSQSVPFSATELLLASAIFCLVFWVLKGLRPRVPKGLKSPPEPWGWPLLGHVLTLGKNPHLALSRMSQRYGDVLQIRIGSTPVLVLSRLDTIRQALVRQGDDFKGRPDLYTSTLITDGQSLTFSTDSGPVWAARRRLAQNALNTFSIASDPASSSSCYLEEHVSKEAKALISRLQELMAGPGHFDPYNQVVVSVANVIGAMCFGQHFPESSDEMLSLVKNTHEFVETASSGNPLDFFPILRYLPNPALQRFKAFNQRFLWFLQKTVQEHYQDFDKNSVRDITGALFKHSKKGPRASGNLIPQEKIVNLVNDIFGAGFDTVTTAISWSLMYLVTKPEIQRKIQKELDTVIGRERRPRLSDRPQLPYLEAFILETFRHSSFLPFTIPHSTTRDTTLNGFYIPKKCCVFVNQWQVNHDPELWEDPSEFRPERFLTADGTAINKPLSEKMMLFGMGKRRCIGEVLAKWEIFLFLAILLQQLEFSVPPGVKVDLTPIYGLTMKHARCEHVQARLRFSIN
compound,measurement,setting,value
CCCc1nn(C)c2c(=O)[nH]c(-c3cc(Cc4ccc(C(=O)NO)s4)ccc3OCC)nc12,"inhibition at 10 min, 10 µM",CYP1A2,< 50%
same,IC50,[1],15 nM
